Assay results taken from the supplement of paper PMC10307832.

Compound: CC1(C)CNc2cc(NC(=O)c3cccnc3NCc3ccncc3)ccc21 [Motesanib] + CC1(C)CCC(c2ccc(Cl)cc2)=C(CN2CCN(c3ccc(C(=O)NS(=O)(=O)c4ccc(N[C@H](CCN5CCOCC5)CSc5ccccc5)c(S(=O)(=O)C(F)(F)F)c4)cc3)CC2)C1 [Navitoclax] (partner 0.5 µM)
Test: relative viability (nuclei count vs DMSO), 5 days (fraction); higher = more cells survive
Details: first compound 0.01 µM
Outline: (§1)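 Lung cancer cell lines were pin-tool dosed in 1536-well plates on the day after seeding, with either a lone drug or a fixed anchor-drug dose plus five library-drug doses (not always all listed) in √10 steps. Nuclei were counted on 4× images after 5 days. Relative viability is the ratio of treated-well to vehicle-well nuclei counts, with each value a median of duplicate plates.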

Cell Line	relative viability
HCC-78	0.817
NCI-H322M	1.19
LCLC-97TM1	0.406
NCI-H2009	1.12
A-427	1.01
NCI-H441	0.706
NCI-H1734	0.861
NCI-H460	1.15
NCI-H2347	0.816
SK-LU-1	0.611
NCI-H1395	1.22
201T	1.2
NCI-H1915	0.782
HCC-827	1.11
LXF-289	0.923
NCI-H23	0.901

Cell Line	relative viability
NCI-H647	1.26
CAL-12T	1.34
NCI-H1651	1.08
EPLC-272H	1.16
NCI-H2228	1.13
NCI-H1355	0.994
NCI-H3122	0.937
NCI-H1437	1.09
NCI-H1755	0.938
NCI-H2023	0.949
HCC-15	0.69
NCI-H1793	0.594
PC-14	1.03
EKVX	0.88
LC-2-ad	0.405

Same assay, conditions: first compound 0.03162 µM

Cell Line	relative viability
HCC-78	0.862
NCI-H322M	1.32
LCLC-97TM1	0.519
NCI-H2009	1.19
A-427	0.989
NCI-H441	0.729
NCI-H1734	0.915
NCI-H460	1.05
NCI-H2347	0.751
SK-LU-1	0.695
NCI-H1395	1.06
201T	1.21
NCI-H1915	0.747
HCC-827	1.01
LXF-289	0.957
NCI-H23	0.552

Cell Line	relative viability
NCI-H647	1.49
CAL-12T	1.47
NCI-H1651	0.946
EPLC-272H	0.905
NCI-H2228	0.913
NCI-H1355	0.946
NCI-H3122	1.04
NCI-H1437	1.05
NCI-H1755	0.966
NCI-H2023	0.916
HCC-15	0.718
NCI-H1793	0.445
PC-14	1.06
EKVX	1.11
LC-2-ad	0.381

Same assay, conditions: first compound 0.1 µM

Cell Line	relative viability
HCC-78	0.825
NCI-H322M	1.33
LCLC-97TM1	0.32
NCI-H2009	1.15
A-427	1.06
NCI-H441	0.627
NCI-H1734	0.796
NCI-H460	1.09
NCI-H2347	0.712
SK-LU-1	0.925
NCI-H1395	1.27
201T	1.21
NCI-H1915	0.824
HCC-827	1.07
LXF-289	0.931
NCI-H647	1.28
CAL-12T	1.3
NCI-H1651	1.09
EPLC-272H	1.3
NCI-H2228	0.632
NCI-H1355	0.882
NCI-H3122	0.981
NCI-H1437	1.07
NCI-H1755	1.02
NCI-H2023	1.02
HCC-15	0.713
NCI-H1793	0.41
PC-14	1
EKVX	1.06
LC-2-ad	0.522

Same assay, conditions: first compound 0.3162 µM

Cell Line	relative viability
HCC-78	0.818
NCI-H322M	1.2
LCLC-97TM1	0.375
NCI-H2009	1.21
A-427	1.02
NCI-H441	0.641
NCI-H1734	0.959
NCI-H460	1.14
NCI-H2347	0.882
SK-LU-1	0.919
NCI-H1395	1.17
201T	1.19
NCI-H1915	0.794
HCC-827	1.05
LXF-289	0.955
NCI-H23	0.779

Cell Line	relative viability
NCI-H647	1.19
CAL-12T	1.24
NCI-H1651	0.994
EPLC-272H	1.04
NCI-H2228	1.04
NCI-H1355	1.06
NCI-H3122	1.06
NCI-H1437	1.11
NCI-H1755	0.991
NCI-H2023	1.02
HCC-15	0.773
NCI-H1793	0.583
PC-14	1.06
EKVX	0.989
LC-2-ad	0.402

Same assay, conditions: first compound 1 µM

Cell Line	relative viability
HCC-78	0.947
NCI-H322M	1.23
LCLC-97TM1	0.657
NCI-H2009	1.18
A-427	1.02
NCI-H441	0.796
NCI-H1734	0.938
NCI-H460	1.24
NCI-H2347	1.02
SK-LU-1	1.13
NCI-H1395	1.27
201T	1.2
NCI-H1915	0.784
HCC-827	1.02
LXF-289	0.951
NCI-H23	0.826

Cell Line	relative viability
NCI-H647	1.18
CAL-12T	1.28
NCI-H1651	1
EPLC-272H	1.26
NCI-H2228	1.12
NCI-H1355	0.957
NCI-H3122	1.04
NCI-H1437	1.13
NCI-H1755	1
NCI-H2023	0.98
HCC-15	0.748
NCI-H1793	0.33
PC-14	1.05
EKVX	0.961
LC-2-ad	0.4

Compound: C[C@@]1(C(=O)Nc2ccc(F)nc2)CCCN1c1nc(Nc2cc(C3CC3)n[nH]2)c2cccn2n1 + CC1(C)CCC(c2ccc(Cl)cc2)=C(CN2CCN(c3ccc(C(=O)NS(=O)(=O)c4ccc(N[C@H](CCN5CCOCC5)CSc5ccccc5)c(S(=O)(=O)C(F)(F)F)c4)cc3)CC2)C1 [Navitoclax] (partner 0.5 µM)
Test: as above
Details: first compound 0.04 µM
Outline: as §1

Cell Line	relative viability
HCC-78	0.7
NCI-H322M	1.27
LCLC-97TM1	0.117
NCI-H2009	1.26
A-427	0.885
NCI-H441	0.363
NCI-H1734	0.834
NCI-H460	1.08
NCI-H2347	0.777
SK-LU-1	0.958
NCI-H1395	1.33
201T	1.15
NCI-H1915	0.774
HCC-827	1.02
LXF-289	0.987
NCI-H23	0.658

Cell Line	relative viability
NCI-H647	1.1
CAL-12T	1.18
NCI-H1651	0.963
EPLC-272H	1.07
NCI-H2228	0.561
NCI-H1355	0.776
NCI-H3122	1.05
NCI-H1437	1.04
NCI-H1755	1
NCI-H2023	0.89
HCC-15	0.663
NCI-H1793	0.31
PC-14	0.99
EKVX	0.944
LC-2-ad	0.379

Same assay, conditions: first compound 0.1265 µM

Cell Line	relative viability
HCC-78	0.505
NCI-H322M	1
LCLC-97TM1	0.32
NCI-H2009	1.23
A-427	0.988
NCI-H441	0.413
NCI-H1734	0.593
NCI-H460	0.893
NCI-H2347	0.544
SK-LU-1	0.689
NCI-H1395	0.983
201T	1.09
NCI-H1915	0.767
HCC-827	1
LXF-289	0.917
NCI-H23	0.587

Cell Line	relative viability
NCI-H647	0.989
CAL-12T	1.16
NCI-H1651	1.12
EPLC-272H	1.04
NCI-H2228	0.762
NCI-H1355	0.924
NCI-H3122	1.06
NCI-H1437	0.828
NCI-H1755	0.864
NCI-H2023	0.703
HCC-15	0.561
NCI-H1793	0.304
PC-14	0.69
EKVX	0.728
LC-2-ad	0.373

Same assay, conditions: first compound 0.4 µM

Cell Line	relative viability
HCC-78	0.308
NCI-H322M	1.07
LCLC-97TM1	0.196
NCI-H2009	1.11
A-427	1.03
NCI-H441	0.116
NCI-H1734	0.661
NCI-H460	1.01
NCI-H2347	0.661
SK-LU-1	0.816
NCI-H1395	1.03
201T	1.11
NCI-H1915	0.836
HCC-827	1.01
LXF-289	0.941
NCI-H23	0.444

Cell Line	relative viability
NCI-H647	0.894
CAL-12T	1.14
NCI-H1651	0.861
EPLC-272H	1.07
NCI-H2228	0.723
NCI-H1355	0.787
NCI-H3122	1.06
NCI-H1437	0.739
NCI-H1755	0.913
NCI-H2023	0.654
HCC-15	0.528
NCI-H1793	0.378
PC-14	0.959
EKVX	0.785
LC-2-ad	0.296

Same assay, conditions: first compound 1.265 µM

Cell Line	relative viability
HCC-78	0.268
NCI-H322M	1.19
LCLC-97TM1	0.324
NCI-H2009	1.29
A-427	0.915
NCI-H441	0.505
NCI-H1734	0.731
NCI-H460	1.23
NCI-H2347	0.846
SK-LU-1	0.42
NCI-H1395	1.24
201T	1.16
NCI-H1915	0.779
HCC-827	1
LXF-289	0.991
